These results are taken from patent US7074789B2, “Kinase inhibitors” (Amgen Inc., priority 1999, dated 2006).

Structures are written as SMILES. pIC50: −log10 of the molar value.

Type in all cases: biochemical
The target in one test is T1, EGFR (Homo sapiens, UniProt P00533).
T1 construct: Kinases are expressed as either kinase domains or full length constructs; made in house
The test is described as follows: Kinase inhibition assay (33P transfer), EGFR. As to conditions: Table 2, kinase inhibition class; read-out: EGFR-1. Put shortly:
(§1)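 GST/His-fusion kinases, E. coli or High Five expressed, affinity purified; 33P-ATP, plate-coated poly(Glu,Tyr) 4:1 or poly(Arg,Ser) 3:1; 0.5% H3PO4 wash, scintillant, LSC.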

Another test concerns the target T2, Hck-1 (Homo sapiens, UniProt P08631).
T2 construct: Kinases are expressed as either kinase domains or full length constructs; made in house
The test is described as follows: Kinase inhibition assay (33P transfer), Hck. As to conditions: Table 6, Hck-1 kinase inhibition class.

The next test deals with T3, Lck (Homo sapiens, UniProt P06239).
T3 construct: Kinases are expressed as either kinase domains or full length constructs; made in house
As to the kind of experiment: Kinase inhibition assay (33P transfer), Lck. The following applies: Table 3; read-out: Lck-1. In outline: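 Filterless plate radiometric format: immobilized poly(Glu,Tyr) 4:1 or poly(Arg,Ser) 3:1, 33P-labelled ATP, tagged recombinant kinase (some with regulatory partners). Incorporated label counted after phosphoric acid wash.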

In the next test the target is T4, IGFR-1 (Homo sapiens, UniProt P08069).
T4 construct: Kinases are expressed as either kinase domains or full length constructs; made in house
As to the kind of experiment: Kinase inhibition assay (33P transfer), IGFR-1. As to conditions: Table 2, kinase inhibition class.

In another test the target is T5, Fyn (Homo sapiens, UniProt P06241).
T5 construct: Kinases are expressed as either kinase domains or full length constructs; made in house
The test is described as follows: Kinase inhibition assay (33P transfer), Fyn. As to conditions: read-out: Fyn-1. Put shortly: as §1

The next test addresses T6, c-Met (Homo sapiens, UniProt P08581).
T6 construct: Kinases are expressed as either kinase domains or full length constructs; made in house
The test is described as follows: Kinase inhibition assay (33P transfer), c-Met. The following applies: Table 2, kinase inhibition class; read-out: Met-1. Put shortly: as §1

The target of the next test is T7, FGFR1 (Homo sapiens, UniProt P11362).
T7 construct: Kinases are expressed as either kinase domains or full length constructs; made in house
As to the kind of experiment: Kinase inhibition assay (33P transfer), FGFR1. As to conditions: read-out: FGFR1-1.

The target of a further test is T8, PDGFRB (Homo sapiens, UniProt P09619).
T8 construct: Kinases are expressed as either kinase domains or full length constructs; made in house
The test is described as follows: Kinase inhibition assay (33P transfer), PDGFRB. As to conditions: read-out: PDGFRB-1.

The target of the next test is T9, Flt-1 (Homo sapiens, UniProt P17948).
T9 construct: Kinases are expressed as either kinase domains or full length constructs; made in house
The test is described as follows: Kinase inhibition assay (33P transfer), Flt-1. In outline:
as §1

The next test concerns the target T10, Itk (Homo sapiens, UniProt Q08881).
T10 construct: Kinases are expressed as either kinase domains or full length constructs; made in house
T10 sequence (Q08881 1-620): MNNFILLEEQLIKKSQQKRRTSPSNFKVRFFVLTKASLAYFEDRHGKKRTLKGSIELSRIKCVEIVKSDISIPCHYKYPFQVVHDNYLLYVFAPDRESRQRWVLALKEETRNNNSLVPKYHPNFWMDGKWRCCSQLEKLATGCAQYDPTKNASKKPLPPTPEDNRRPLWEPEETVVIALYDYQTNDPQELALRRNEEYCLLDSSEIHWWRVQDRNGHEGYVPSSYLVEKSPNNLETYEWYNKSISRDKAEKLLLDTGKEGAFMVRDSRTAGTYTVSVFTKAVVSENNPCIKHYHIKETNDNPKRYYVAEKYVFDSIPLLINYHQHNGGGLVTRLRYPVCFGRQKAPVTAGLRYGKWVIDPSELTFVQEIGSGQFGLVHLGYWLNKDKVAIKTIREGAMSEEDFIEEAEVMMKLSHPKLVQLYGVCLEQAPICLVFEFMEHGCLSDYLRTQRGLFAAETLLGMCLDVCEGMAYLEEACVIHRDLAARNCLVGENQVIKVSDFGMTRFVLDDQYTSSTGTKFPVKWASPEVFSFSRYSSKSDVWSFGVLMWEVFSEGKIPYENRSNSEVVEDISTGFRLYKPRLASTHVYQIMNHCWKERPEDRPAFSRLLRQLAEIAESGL
As to the kind of experiment: Kinase inhibition assay (33P transfer), Itk. The following applies: Table 3; read-out: Itk-1. Put shortly:
as §1

In a further test the target is T11, Tek (Homo sapiens, UniProt Q02763).
T11 construct: Kinases are expressed as either kinase domains or full length constructs; made in house
As to the kind of experiment: Kinase inhibition assay (33P transfer), Tek. The following applies: read-out: Tek-1. In outline:
as §1

T8 sequence (P09619 33-1106, species assumed): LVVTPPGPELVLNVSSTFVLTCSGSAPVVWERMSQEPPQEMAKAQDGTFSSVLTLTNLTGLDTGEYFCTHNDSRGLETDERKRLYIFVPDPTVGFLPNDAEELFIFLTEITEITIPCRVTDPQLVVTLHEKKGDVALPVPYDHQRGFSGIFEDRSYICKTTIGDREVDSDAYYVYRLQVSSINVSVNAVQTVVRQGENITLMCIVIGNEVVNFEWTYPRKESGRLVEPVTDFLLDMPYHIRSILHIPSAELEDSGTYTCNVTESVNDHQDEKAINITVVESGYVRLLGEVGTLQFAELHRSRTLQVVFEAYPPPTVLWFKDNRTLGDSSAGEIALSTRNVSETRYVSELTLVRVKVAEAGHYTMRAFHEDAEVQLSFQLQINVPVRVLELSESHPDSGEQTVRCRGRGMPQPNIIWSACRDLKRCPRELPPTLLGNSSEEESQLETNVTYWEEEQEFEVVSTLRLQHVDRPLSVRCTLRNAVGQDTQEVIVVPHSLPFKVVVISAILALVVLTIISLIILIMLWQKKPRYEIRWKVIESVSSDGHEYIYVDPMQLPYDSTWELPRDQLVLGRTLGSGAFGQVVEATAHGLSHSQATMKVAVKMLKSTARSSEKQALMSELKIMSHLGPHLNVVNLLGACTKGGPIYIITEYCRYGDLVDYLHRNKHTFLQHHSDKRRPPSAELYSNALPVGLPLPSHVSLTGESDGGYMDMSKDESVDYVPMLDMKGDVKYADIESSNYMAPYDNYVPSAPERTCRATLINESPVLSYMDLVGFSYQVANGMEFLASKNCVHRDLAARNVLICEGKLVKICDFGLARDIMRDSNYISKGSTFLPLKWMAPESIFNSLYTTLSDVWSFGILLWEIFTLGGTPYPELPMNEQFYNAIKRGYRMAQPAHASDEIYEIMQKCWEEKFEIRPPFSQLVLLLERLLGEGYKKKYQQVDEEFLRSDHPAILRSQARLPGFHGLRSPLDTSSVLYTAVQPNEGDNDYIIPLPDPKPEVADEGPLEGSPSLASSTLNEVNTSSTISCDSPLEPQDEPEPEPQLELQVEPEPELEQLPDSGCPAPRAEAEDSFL
T7 sequence (P11362 22-822, species assumed): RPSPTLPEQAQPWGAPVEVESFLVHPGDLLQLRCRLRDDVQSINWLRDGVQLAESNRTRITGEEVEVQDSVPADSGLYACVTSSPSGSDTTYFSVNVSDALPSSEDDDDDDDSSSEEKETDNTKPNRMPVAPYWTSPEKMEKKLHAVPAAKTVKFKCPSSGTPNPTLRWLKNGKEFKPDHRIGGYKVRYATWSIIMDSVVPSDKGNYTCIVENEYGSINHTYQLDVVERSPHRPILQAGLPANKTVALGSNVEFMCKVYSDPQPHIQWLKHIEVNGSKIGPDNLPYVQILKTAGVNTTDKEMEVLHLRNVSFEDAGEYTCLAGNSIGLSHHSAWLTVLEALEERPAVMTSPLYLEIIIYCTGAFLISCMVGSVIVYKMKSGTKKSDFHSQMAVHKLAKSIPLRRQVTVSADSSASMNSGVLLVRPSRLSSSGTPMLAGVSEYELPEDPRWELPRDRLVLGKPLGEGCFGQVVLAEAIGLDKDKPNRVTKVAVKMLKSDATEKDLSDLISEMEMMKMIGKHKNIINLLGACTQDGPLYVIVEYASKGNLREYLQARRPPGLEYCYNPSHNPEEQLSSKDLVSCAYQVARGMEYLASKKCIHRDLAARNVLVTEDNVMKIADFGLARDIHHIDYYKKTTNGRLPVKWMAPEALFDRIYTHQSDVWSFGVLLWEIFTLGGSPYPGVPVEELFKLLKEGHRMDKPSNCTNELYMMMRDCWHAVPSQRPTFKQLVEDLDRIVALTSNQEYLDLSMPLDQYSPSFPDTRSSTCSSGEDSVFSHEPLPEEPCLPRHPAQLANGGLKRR
T5 sequence (P06241 whole entry, species assumed, the tested form may be a part): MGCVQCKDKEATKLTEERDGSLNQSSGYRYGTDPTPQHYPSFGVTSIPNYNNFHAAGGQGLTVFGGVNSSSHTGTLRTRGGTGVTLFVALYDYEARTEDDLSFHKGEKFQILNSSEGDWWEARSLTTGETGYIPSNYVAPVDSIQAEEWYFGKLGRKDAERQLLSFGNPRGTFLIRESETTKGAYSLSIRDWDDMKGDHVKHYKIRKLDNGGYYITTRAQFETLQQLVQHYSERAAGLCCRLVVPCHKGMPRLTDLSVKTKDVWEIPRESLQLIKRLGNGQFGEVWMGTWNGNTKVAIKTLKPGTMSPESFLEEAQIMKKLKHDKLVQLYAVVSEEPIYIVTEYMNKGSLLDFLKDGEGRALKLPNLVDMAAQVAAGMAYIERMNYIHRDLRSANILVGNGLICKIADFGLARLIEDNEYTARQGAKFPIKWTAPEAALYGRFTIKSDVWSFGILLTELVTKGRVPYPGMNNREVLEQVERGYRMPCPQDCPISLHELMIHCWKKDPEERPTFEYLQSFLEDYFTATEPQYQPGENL
T2 sequence (P08631 whole entry, the tested form may be a part): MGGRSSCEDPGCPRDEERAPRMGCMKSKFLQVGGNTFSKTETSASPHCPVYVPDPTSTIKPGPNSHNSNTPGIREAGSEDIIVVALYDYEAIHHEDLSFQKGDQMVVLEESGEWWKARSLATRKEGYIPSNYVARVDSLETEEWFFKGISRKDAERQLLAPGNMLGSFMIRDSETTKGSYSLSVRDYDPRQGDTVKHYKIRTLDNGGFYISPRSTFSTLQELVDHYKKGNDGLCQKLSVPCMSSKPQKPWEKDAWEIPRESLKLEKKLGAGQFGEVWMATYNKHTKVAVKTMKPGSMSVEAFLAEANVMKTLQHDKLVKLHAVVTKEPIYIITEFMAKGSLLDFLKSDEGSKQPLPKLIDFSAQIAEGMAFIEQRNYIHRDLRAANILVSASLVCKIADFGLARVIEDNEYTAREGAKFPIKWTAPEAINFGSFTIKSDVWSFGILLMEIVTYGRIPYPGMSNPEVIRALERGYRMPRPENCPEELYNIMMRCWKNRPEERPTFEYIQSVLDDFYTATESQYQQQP
T1 sequence (P00533 25-1210, species assumed): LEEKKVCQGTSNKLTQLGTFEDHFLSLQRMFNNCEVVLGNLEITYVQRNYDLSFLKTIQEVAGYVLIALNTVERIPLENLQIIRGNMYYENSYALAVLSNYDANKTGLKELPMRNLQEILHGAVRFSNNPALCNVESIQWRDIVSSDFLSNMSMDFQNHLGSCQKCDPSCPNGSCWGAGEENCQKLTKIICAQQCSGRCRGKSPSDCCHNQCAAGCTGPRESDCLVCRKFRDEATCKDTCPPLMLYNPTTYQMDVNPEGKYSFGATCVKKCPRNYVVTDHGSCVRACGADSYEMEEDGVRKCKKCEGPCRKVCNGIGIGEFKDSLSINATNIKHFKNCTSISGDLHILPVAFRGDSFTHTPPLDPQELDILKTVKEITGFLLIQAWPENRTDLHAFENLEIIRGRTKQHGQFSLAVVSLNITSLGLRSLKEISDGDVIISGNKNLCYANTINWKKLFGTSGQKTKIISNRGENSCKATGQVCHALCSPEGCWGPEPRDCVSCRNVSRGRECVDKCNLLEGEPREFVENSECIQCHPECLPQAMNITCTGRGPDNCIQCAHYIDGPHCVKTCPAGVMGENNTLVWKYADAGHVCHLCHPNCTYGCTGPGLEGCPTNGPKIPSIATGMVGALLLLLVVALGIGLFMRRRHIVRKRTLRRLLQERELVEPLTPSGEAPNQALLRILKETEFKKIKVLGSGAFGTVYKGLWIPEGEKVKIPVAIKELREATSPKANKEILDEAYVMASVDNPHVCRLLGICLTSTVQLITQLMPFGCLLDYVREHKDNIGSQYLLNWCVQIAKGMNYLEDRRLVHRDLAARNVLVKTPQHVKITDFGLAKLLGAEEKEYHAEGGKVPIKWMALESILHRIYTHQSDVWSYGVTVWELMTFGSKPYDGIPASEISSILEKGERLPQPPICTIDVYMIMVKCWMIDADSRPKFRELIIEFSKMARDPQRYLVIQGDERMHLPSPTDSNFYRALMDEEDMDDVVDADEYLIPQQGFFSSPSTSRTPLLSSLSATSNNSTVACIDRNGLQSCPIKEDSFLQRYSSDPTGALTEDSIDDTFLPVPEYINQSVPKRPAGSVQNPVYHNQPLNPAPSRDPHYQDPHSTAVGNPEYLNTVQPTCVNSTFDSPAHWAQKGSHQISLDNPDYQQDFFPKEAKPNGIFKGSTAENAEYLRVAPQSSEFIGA
T3 sequence (P06239 whole entry, species assumed, the tested form may be a part): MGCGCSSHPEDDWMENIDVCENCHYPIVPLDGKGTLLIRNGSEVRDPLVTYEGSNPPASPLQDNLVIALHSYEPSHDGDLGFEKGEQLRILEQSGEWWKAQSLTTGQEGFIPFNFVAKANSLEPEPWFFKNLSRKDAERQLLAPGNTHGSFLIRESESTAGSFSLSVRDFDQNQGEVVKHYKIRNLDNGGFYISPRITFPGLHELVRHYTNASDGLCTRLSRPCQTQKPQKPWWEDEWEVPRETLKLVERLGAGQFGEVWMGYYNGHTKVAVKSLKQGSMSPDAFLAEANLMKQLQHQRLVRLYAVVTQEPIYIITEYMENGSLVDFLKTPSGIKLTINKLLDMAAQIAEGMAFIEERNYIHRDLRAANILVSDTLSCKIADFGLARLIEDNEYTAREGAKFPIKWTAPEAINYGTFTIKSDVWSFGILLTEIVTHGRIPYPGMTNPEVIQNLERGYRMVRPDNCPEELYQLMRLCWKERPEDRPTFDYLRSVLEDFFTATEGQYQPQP

In the case of `COc1cc(Nc2ncnc(Nc3ccc(N)cc3)n2)cc(OC)c1OC` [Compound 92], the pIC50 at EGFR was 5.19 to 5.96; against Hck-1, under 4.91; at Lck, under 4.91; against IGFR-1, 5.19 to 5.96; at Fyn it was under 4.91; on c-Met it was 5.19 to 5.96. The pIC50 at FGFR1 is 5.02 to 5.19; on PDGFRB, 5.19 to 5.96; on Flt-1, 5.02 to 5.19; on Itk it was under 4.91; on Tek, 5.02 to 5.19.
For `COc1cc(Nc2ncnc(Nc3ccc(C(C)C)cc3)n2)cc(OC)c1OC` [Compound 66], the pIC50 was under 4.94 at EGFR; under 4.94 against Hck-1; 5.22 to 6.00 on Lck; over 6.00 against IGFR-1; under 4.94 on Fyn; 5.22 to 6.00 on c-Met. For the same molecule, the pIC50 at FGFR1 was under 4.94; on PDGFRB it was under 4.94; against Flt-1, under 4.94; at Itk it was under 4.94; at Tek it was 5.05 to 5.22.
With `COC(=O)c1cccc(Nc2nc3ccccc3n2-c2ncnc(Nc3cc(OC)c(OC)c(OC)c3)n2)c1` [Compound 383], the pIC50 is under 5.07 at EGFR; 5.18 to 5.34 on Lck; under 5.07 at IGFR-1; under 5.07 on c-Met; 5.18 to 5.34 at Itk; 5.18 to 5.34 on Tek.
With `COc1cc(Nc2ncnc(Nc3cnc4ccccc4c3)n2)cc(OC)c1OC` [Compound 99], the pIC50 was 5.23 to 6.00 on EGFR; 4.95 to 5.06 against Hck-1; 5.23 to 6.00 at Lck; 5.23 to 6.00 at Fyn; 4.95 to 5.06 at c-Met; 5.23 to 6.00 at FGFR1. Besides, the pIC50 on PDGFRB was 5.23 to 6.00; on Flt-1, 5.23 to 6.00; at Itk it was under 4.95; at Tek it was under 4.95.
As to `COc1cc(Nc2ncnc(Nc3ccccc3C)n2)cc(OC)c1OC` [Compound 67], the pIC50 is 5.02 to 5.18 on EGFR; under 4.91 at Hck-1; 5.18 to 5.96 on Lck; 4.91 to 5.02 at IGFR-1; 4.91 to 5.02 at Fyn; under 4.91 on c-Met. In addition, the pIC50 at FGFR1 is under 4.91; on PDGFRB, 5.18 to 5.96; against Flt-1, 4.91 to 5.02; on Itk, under 4.91; on Tek, under 4.91.
On to `COc1cc(Nc2ncnc(Nc3ccc(O)cc3Cl)n2)cc(OC)c1OC` [Compound 77], for which the pIC50 on EGFR is 5.23 to 6.00; against Hck-1, under 4.95; at Lck, 5.23 to 6.00; at IGFR-1 it was 5.23 to 6.00; on Fyn, 5.23 to 6.00; on c-Met it was under 4.95. Moreover, the pIC50 is 5.23 to 6.00 on FGFR1; over 6.00 on PDGFRB; 5.23 to 6.00 on Flt-1; 4.95 to 5.06 on Itk; under 4.95 on Tek.
With `COc1cc(Nc2ncnc(Nc3cc(C)[nH]n3)n2)cc(OC)c1OC` [Compound 88], the pIC50 at EGFR was 4.90 to 5.01; at Hck-1, 4.90 to 5.01; at Lck, 5.17 to 5.95; against IGFR-1 it was 5.17 to 5.95; on Fyn it was 5.17 to 5.95; at c-Met, 5.17 to 5.95. Also, the values for the pIC50 at Itk and on Tek were 5.17 to 5.95 and under 4.90, respectively.
As to `COc1cc(Nc2ncnc(Nc3ccc(Br)cc3)n2)cc(OC)c1OC` [Compound 82], the pIC50 is 5.26 to 6.03 at EGFR; 5.26 to 6.03 at Lck; 5.26 to 6.03 against IGFR-1; under 4.98 on c-Met; 5.26 to 6.03 on FGFR1; over 6.03 on PDGFRB. For the same molecule, the pIC50 on Flt-1 is over 6.03; at Itk it was under 4.98; at Tek, under 4.98.
Turning to `COc1cc(Nc2ncnc(Nc3ccc(N4CCOCC4)cc3)n2)cc(OC)c1OC` [Compound 101], the pIC50 was under 4.99 on EGFR; under 4.99 on Hck-1; 5.10 to 5.26 on Lck; under 4.99 on IGFR-1; 5.26 to 6.04 at Fyn; under 4.99 on c-Met. The pIC50 on Itk was under 4.99; at Tek, 4.99 to 5.10.
Take `COc1cc(Nc2ncnc(Nc3ccc(C(N)=O)cc3)n2)cc(OC)c1OC` [Compound 33]: the pIC50 on EGFR was under 4.94; against Hck-1, under 4.94; on Lck it was 4.94 to 5.05; at IGFR-1 it was over 6.00; at Fyn, 5.05 to 5.22; on c-Met, under 4.94. The pIC50 at FGFR1 is 5.05 to 5.22; on PDGFRB, 4.94 to 5.05; on Flt-1, under 4.94; at Itk, under 4.94; at Tek, under 4.94.
As to `COc1cccc(-c2ncnc(Nc3cc(OC)c(OC)c(OC)c3)n2)c1` [Compound 232], the pIC50 is 5.02 to 5.19 at EGFR; under 4.91 on Hck-1; 5.19 to 5.96 at Lck; under 4.91 at IGFR-1; under 4.91 at Fyn; under 4.91 at c-Met. Also, the pIC50 at Itk and on Tek was under 4.91 in each case.
Consider `COc1ccc(Nc2ncnc(Nc3cc(OC)c(OC)c(OC)c3)n2)cc1` [Compound 89], for which the pIC50 at EGFR is 5.20 to 5.98; at Hck-1 it was under 4.93; at Lck it was 5.20 to 5.98; against IGFR-1 it was 5.20 to 5.98; at Fyn, 5.20 to 5.98; on c-Met, under 4.93. Further, the pIC50 at FGFR1 was under 4.93; on PDGFRB, over 5.98; against Flt-1, over 5.98; on Itk, under 4.93; at Tek, under 4.93.
As to `COc1ccccc1Nc1ncnc(Nc2cc(OC)c(OC)c(OC)c2)n1` [Compound 90], the pIC50 is 5.20 to 5.98 on EGFR; 5.20 to 5.98 at Hck-1; 5.20 to 5.98 on Lck; 5.20 to 5.98 against IGFR-1; over 5.98 at Fyn; under 4.93 on c-Met. In addition, the pIC50 at FGFR1 is 5.20 to 5.98; on PDGFRB it was over 5.98; at Flt-1, 5.20 to 5.98; at Itk it was 4.93 to 5.04; on Tek it was under 4.93.
On to `COc1cc(Nc2ncnc(Nc3ccccc3)n2)cc(OC)c1OC` [Compound 91], for which the pIC50 at EGFR was 5.17 to 5.95; at Hck-1, under 4.90; at Lck, 5.17 to 5.95; against IGFR-1, 5.17 to 5.95; on Fyn it was over 5.95; on c-Met it was under 4.90. The pIC50 was 5.00 to 5.17 at FGFR1; over 5.95 at PDGFRB; over 5.95 against Flt-1; under 4.90 on Itk; under 4.90 at Tek.
With `COc1cc(Nc2ncnc(Nc3ccc4c(c3)Cc3ccccc3-4)n2)cc(OC)c1OC` [Compound 95], the pIC50 was under 4.99 at EGFR; under 4.99 on Hck-1; 5.26 to 6.04 at Lck; 5.26 to 6.04 at IGFR-1; 5.26 to 6.04 at Fyn; under 4.99 on c-Met. Also, the pIC50 on Itk and at Tek was under 4.99 in each case.
In the case of `COc1cc(Nc2ncnc(Nc3ccc(N(C)C)cc3)n2)cc(OC)c1OC` [Compound 27], the pIC50 was 5.05 to 5.22 at EGFR; under 4.94 against Hck-1; 5.22 to 6.00 on Lck; over 6.00 against IGFR-1; 5.22 to 6.00 on Fyn; 4.94 to 5.05 at c-Met. For the same molecule, the pIC50 on FGFR1 is 5.22 to 6.00; at PDGFRB, under 4.94; at Flt-1, over 6.00; at Itk, under 4.94.
As to `COc1cc(Nc2ncnc(Nc3cc(OC)c(OC)c(OC)c3)n2)cc(OC)c1OC` [Compound 76], the pIC50 on EGFR is 4.99 to 5.10; against Hck-1, under 4.99; on Lck, 5.27 to 6.04; at IGFR-1 it was 5.27 to 6.04; on Fyn, 5.27 to 6.04; on c-Met, under 4.99. Also, the pIC50 on Itk and on Tek was under 4.99 each time.
